The values that follow come from PubChem BioAssay AID330 (DTP/NCI, 2004).

Molecules are shown by their SMILES. “And” between values parts separate entries of the source, which are not always exact repeats. Identical values can stand only once. Toxic doses and inconclusive results are not listed.

The test has as its system P388 leukemia ip, CD2F1 mice, survival T/C. Nature of the test: NCI In Vivo Anticancer Drug Screen. Data for tumor model P388 Leukemia (intraperitoneal) in CD2F1 (CDF1) mice. To be noted: endpoint: median survival time, higher = longer survival. Summed up: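 Mice carrying the transplanted tumor received test compound or vehicle. Survival was recorded in each group, and the value is the treated-group measurement divided by that of the vehicle-treated control group.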

Where [1] appears, read: dose: 60.0 mg/kg/injection, schedule: Q01DX005 (ip), vehicle: Klucel (hydroxypropylcellulose) (HPC).
Where [2] appears, read: dose: 120.0 mg/kg/injection, schedule: Q01DX005 (ip), vehicle: Klucel (hydroxypropylcellulose) (HPC).
Setting [3] is: dose: 240.0 mg/kg/injection, schedule: Q01DX005 (ip), vehicle: Klucel (hydroxypropylcellulose) (HPC).
Where [4] appears, read: dose: 50.0 mg/kg/injection, schedule: Q01DX009 (ip), vehicle: saline.
The mark [5] stands for this setting: dose: 60.0 mg/kg/injection, schedule: Q01DX005 (ip), vehicle: saline.
The mark [6] stands for this setting: dose: 120.0 mg/kg/injection, schedule: Q01DX005 (ip), vehicle: saline.
[7] abbreviates: dose: 240.0 mg/kg/injection, schedule: Q01DX005 (ip), vehicle: saline.
Setting [8] is: dose: 12.5 mg/kg/injection, schedule: Q01DX005 (ip), vehicle: saline with Tween-80.
Setting [9] is: dose: 25.0 mg/kg/injection, schedule: Q01DX005 (ip), vehicle: saline with Tween-80.
[10] abbreviates: dose: 50.0 mg/kg/injection, schedule: Q01DX005 (ip), vehicle: Klucel (hydroxypropylcellulose) (HPC).
Where [11] appears, read: dose: 50.0 mg/kg/injection, schedule: Q01DX005 (ip), vehicle: saline with Tween-80.
Setting [12] is: dose: 100.0 mg/kg/injection, schedule: Q01DX005 (ip), vehicle: Klucel (hydroxypropylcellulose) (HPC).
Setting [13] is: dose: 50.0 mg/kg/injection, schedule: Q01DX005 (ip), vehicle: saline.
Setting [14] is: dose: 50.0 mg/kg/injection, schedule: Q01DX009 (ip), vehicle: saline with Tween-80.
[15] abbreviates: dose: 100.0 mg/kg/injection, schedule: Q01DX009 (ip), vehicle: saline with Tween-80.
The mark [16] stands for this setting: dose: 200.0 mg/kg/injection, schedule: Q01DX009 (ip), vehicle: saline with Tween-80.
[17] abbreviates: dose: 12.5 mg/kg/injection, schedule: Q01DX009 (ip), vehicle: saline with Tween-80.
[18] abbreviates: dose: 25.0 mg/kg/injection, schedule: Q01DX009 (ip), vehicle: saline with Tween-80.

Regarding `CC1(C)O[P+]2(OC(C)(C)c3ccccc32)c2ccccc21`, the T/C is, setting by setting: (dose: 100.0 mg/kg/injection, schedule: Q04DX002 (ip), vehicle: Klucel (hydroxypropylcellulose) (HPC)) 96 % of control; (dose: 200.0 mg/kg/injection, schedule: Q04DX002 (ip), vehicle: Klucel (hydroxypropylcellulose) (HPC)) 97 % of control; (dose: 400.0 mg/kg/injection, schedule: Q04DX002 (ip), vehicle: Klucel (hydroxypropylcellulose) (HPC)) 96 % of control.

As for `O=C1C=C/C(=C\c2cccc(Cl)c2)O1`, the T/C is, setting by setting: (dose: 100.0 mg/kg/injection, schedule: Q01DX002 (ip), vehicle: Klucel (hydroxypropylcellulose) (HPC)) 103 % of control; (dose: 200.0 mg/kg/injection, schedule: Q01DX002 (ip), vehicle: Klucel (hydroxypropylcellulose) (HPC)) 107 % of control; (dose: 400.0 mg/kg/injection, schedule: Q01DX002 (ip), vehicle: Klucel (hydroxypropylcellulose) (HPC)) 103 % of control.

Regarding `COc1cccc2c1C(=O)c1c(O)c3c(c(O)c1C2=O)C[C@@](O)(C(=O)CO)C[C@@H]3OC1CC(N2CCOCC2)C(O)C(C)O1` (stereo not given in full), the T/C was 102 % of control (dose: 5.0 micrograms/kg/injection, schedule: Q04DX003 (ip), vehicle: water); 107 % of control (dose: 10.0 micrograms/kg/injection, schedule: Q04DX003 (ip), vehicle: water); 106 % of control (dose: 20.0 micrograms/kg/injection, schedule: Q04DX003 (ip), vehicle: water); 153 % of control (dose: 22.0 micrograms/kg/injection, schedule: Q04DX003 (iv), vehicle: saline + alcohol); 106 % of control (dose: 31.25 micrograms/kg/injection, schedule: Q04DX003 (ip), vehicle: water); 180 % of control (dose: 33.0 micrograms/kg/injection, schedule: Q04DX003 (iv), vehicle: saline + alcohol). For the same compound, the T/C (dose: 40.0 micrograms/kg/injection, schedule: Q04DX003 (ip), vehicle: water) is 104 % of control; the T/C (dose: 50.0 micrograms/kg/injection, schedule: Q04DX003 (iv), vehicle: saline + alcohol) is 173 % of control; the T/C (dose: 62.5 micrograms/kg/injection, schedule: Q04DX003 (ip), vehicle: water) was 100 % of control; the T/C (dose: 75.0 micrograms/kg/injection, schedule: Q04DX003 (iv), vehicle: saline + alcohol) is 113 % of control; the T/C (dose: 125.0 micrograms/kg/injection, schedule: Q04DX003 (ip), vehicle: water) was 111 % of control; the T/C (dose: 250.0 micrograms/kg/injection, schedule: Q04DX003 (ip), vehicle: water) was 110 % of control. Under “dose: 500.0 micrograms/kg/injection, schedule: Q04DX003 (ip), vehicle: water”, the T/C was 99 % of control.

As for `CCOC(=O)Nc1cc(NC(C)/C(=N/O)c2ccccc2)c([N+](=O)[O-])c(N)n1` (stereo not given), the T/C reads like this: under setting [1], 157 % of control and 176 % of control; under setting [2], 166 % of control and 186 % of control; under setting [3], 174 % of control and 180 % of control.

As for `CCCN(CCC)CN(CCC)CCC`, the T/C under setting [4] is 106 % of control and the T/C (dose: 100.0 mg/kg/injection, schedule: Q01DX009 (ip), vehicle: saline) was 105 % of control.

For `O=S(=O)(O)CCC(O)S(=O)(=O)O` (stereo not given), the T/C was 102 % of control under setting [5], 108 % of control under setting [6] and 94 % of control under setting [7].

Turning to `CCC1C2Cc3ccc(O)cc3C1(CC)CCN2C` (stereo not given), the T/C runs as follows: (dose: 6.25 mg/kg/injection, schedule: Q01DX005 (ip), vehicle: saline with Tween-80) 99 % of control; under setting [8], 99 % of control; under setting [9], 95 % of control; under setting [10], 103 % of control; under setting [11], 100 % of control; under setting [12], 106 % of control.

Consider `CN(C)c1ccc(C2CC(C)(O)Oc3cc4c(cc32)OCO4)cc1` (stereo not given), for which the T/C under setting [1] is 102 % of control, the T/C under setting [2] was 110 % of control and the T/C under setting [3] was 108 % of control.

As for `COC(=O)C(CP(C)(C)=O)C(N=C(C)C(F)(F)F)(c1ccccc1)c1ccccc1` (stereo not given), the T/C is, setting by setting: under setting [10], 100 % of control; under setting [12], 100 % of control; (dose: 200.0 mg/kg/injection, schedule: Q01DX005 (ip), vehicle: Klucel (hydroxypropylcellulose) (HPC)) 107 % of control.

With `CCNCC1COc2cccc(OCC)c2O1` (stereo not given), the T/C reads like this: (dose: 25.0 mg/kg/injection, schedule: Q04DX002 (ip), vehicle: saline) 104 % of control; (dose: 50.0 mg/kg/injection, schedule: Q04DX002 (ip), vehicle: saline) 101 % of control; (dose: 100.0 mg/kg/injection, schedule: Q04DX002 (ip), vehicle: saline) 99 % of control and 108 % of control.

As for `COC(=O)[CH2][Sn]([CH3])([CH3])[CH2]C(=O)OC`, the T/C reads like this: (dose: 12.5 mg/kg/injection, schedule: Q01DX005 (ip), vehicle: saline) 114 % of control; (dose: 25.0 mg/kg/injection, schedule: Q01DX005 (ip), vehicle: saline) 124 % of control; under setting [13], 123 % of control.

On to `Cc1cc2nc3[nH]c(=O)c4ccccc4c(=O)n3c2cc1C`, for which the T/C is, setting by setting: (dose: 100.0 mg/kg/injection, schedule: Q01DX001 (ip), vehicle: Klucel (hydroxypropylcellulose) (HPC)) 98 % of control; (dose: 200.0 mg/kg/injection, schedule: Q01DX001 (ip), vehicle: Klucel (hydroxypropylcellulose) (HPC)) 92 % of control.

`Cc1ccc(-c2cc(-c3cc(-c4ccc(C)cc4)nc(N)n3)nc(N)n2)cc1`: the T/C was 90 % of control under setting [5], 96 % of control under setting [6] and 97 % of control under setting [7].

Consider `O=c1[nH]cn[nH]1`, for which the T/C is, setting by setting: under setting [13], 101 % of control; (dose: 100.0 mg/kg/injection, schedule: Q01DX005 (ip), vehicle: saline) 98 % of control; (dose: 200.0 mg/kg/injection, schedule: Q01DX005 (ip), vehicle: saline) 95 % of control.

As to `OCc1ccc(Cl)cc1Cl`, the T/C by setting is: under setting [14], 104 % of control; under setting [15], 95 % of control; under setting [16], 109 % of control.

For `CCOC(=O)CSc1nnc(-c2cc(OC)c(OCC)c(OC)c2)o1`, the T/C reads like this: (dose: 62.5 mg/kg/injection, schedule: Q01DX001 (ip), vehicle: Klucel (hydroxypropylcellulose) (HPC)) 102 % of control; (dose: 125.0 mg/kg/injection, schedule: Q01DX001 (ip), vehicle: Klucel (hydroxypropylcellulose) (HPC)) 102 % of control; (dose: 250.0 mg/kg/injection, schedule: Q01DX001 (ip), vehicle: Klucel (hydroxypropylcellulose) (HPC)) 100 % of control.

With `C=CC(=C)C1(O)c2ccccc2C(=O)N1C` (stereo not given), the T/C under setting [1] is 106 % of control and the T/C under setting [2] was 109 % of control.

As for `CN(C)c1cccc2c(S(=O)(=O)NCCCCCCCCCCCCN)cccc12`, where the note is “dose: 100.0 mg/kg/injection, schedule: Q01DX001 (ip), vehicle: saline + Tween-80 + alcohol”, the T/C was 105 % of control.

Turning to `CC(=O)c1ccc(N=C2C(=O)Nc3ccccc32)cc1`, the T/C was 93 % of control under setting [17]; 87 % of control under setting [18]; 89 % of control and 96 % of control under setting [14]; 105 % of control under setting [15]; 116 % of control under setting [16].

In the case of `CCNC(C)(C)C(SSSC(c1ccc(Cl)cc1)C(C)(C)NCC)c1ccc(Cl)cc1` (stereo not given), the T/C was 109 % of control (dose: 6.25 mg/kg/injection, schedule: Q01DX009 (ip), vehicle: saline); 115 % of control (dose: 12.5 mg/kg/injection, schedule: Q01DX009 (ip), vehicle: saline); 105 % of control (dose: 25.0 mg/kg/injection, schedule: Q01DX009 (ip), vehicle: saline); 101 % of control under setting [4].

With `O=C1OCC/C1=C1\CCCO1`, the T/C is, setting by setting: under setting [17], 112 % of control and 97 % of control; under setting [18], 100 % of control and 102 % of control; under setting [14], 98 % of control and 99 % of control; under setting [15], 102 % of control and 108 % of control and 116 % of control; under setting [16], 112 % of control; (dose: 400.0 mg/kg/injection, schedule: Q01DX009 (ip), vehicle: saline with Tween-80) 113 % of control.

On to `CN1c2ccccc2S(=O)(=O)n2c(COc3ccc(Cl)cc3)nnc21`, for which the T/C is 100 % of control under setting [8], 100 % of control under setting [9] and 106 % of control under setting [11].
